Reference: US6071932A, “Carbazolypiperines as GABA uptake inhibitors” (British Technology Group Intercorporate Licensing Limited, priority 1995, dated 2000)
Structures can show the parent of a compound that is named as a salt.

Tested on: GABA uptake
Test: not given
Conditions: cited from earlier work

Row | Structure (SMILES) | inhibition of GABA uptake from the synaptic cleft into presynaptic nerve terminals and glial cells
1 | O=C(O)C1CCCNC1 (stereo not drawn) [nipecotic acid, 3-piperidinecarboxylic acid] | well-known and potent inhibitor

Target: T1, GABA uptake carrier (Rattus norvegicus, UniProt P31647)
T1 construct: A crude membrane preparation was prepared from selected brain areas; from tissue; host or cells: crude membrane (synaptosomal) preparation from selected brain areas
T1 sequence (P31647 1-627): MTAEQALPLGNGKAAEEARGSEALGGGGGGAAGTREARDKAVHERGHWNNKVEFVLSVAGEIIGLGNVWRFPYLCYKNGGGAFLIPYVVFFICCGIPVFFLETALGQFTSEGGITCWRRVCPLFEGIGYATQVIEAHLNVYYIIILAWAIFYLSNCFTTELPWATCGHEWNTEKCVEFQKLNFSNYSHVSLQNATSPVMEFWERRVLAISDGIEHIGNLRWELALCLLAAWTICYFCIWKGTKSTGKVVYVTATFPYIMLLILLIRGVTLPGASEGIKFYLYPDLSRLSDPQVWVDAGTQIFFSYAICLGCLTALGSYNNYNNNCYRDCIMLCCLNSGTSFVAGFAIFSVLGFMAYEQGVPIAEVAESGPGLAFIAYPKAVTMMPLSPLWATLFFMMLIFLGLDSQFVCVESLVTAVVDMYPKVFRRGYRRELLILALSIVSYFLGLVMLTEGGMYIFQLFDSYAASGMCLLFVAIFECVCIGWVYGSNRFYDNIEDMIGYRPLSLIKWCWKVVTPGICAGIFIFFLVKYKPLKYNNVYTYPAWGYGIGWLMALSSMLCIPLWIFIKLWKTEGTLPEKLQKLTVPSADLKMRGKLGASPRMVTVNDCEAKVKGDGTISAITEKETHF
Test: 3H-GABA uptake in crude brain membrane preparation in presence of NNC 05-0711
Assay type: biochemical
Conditions: NNC 05-0711 1 mM, 0.9 nM 3H-GABA + 25 nM GABA, pH 7.5, 30° C., 8 min, read-out: IC50 (nM) in vitro, Non-GABA uptake carrier mediated uptake of 3H-GABA
Method: ^3 H-GABA uptake was measured by a modification of the method of Fjalland et al., (1978). A crude membrane preparation was prepared from selected brain areas by homogenization in 20 ml of ice-cold 0.32 M sucrose with a hand driven teflon/glass Potter-Elvehjem homogenizer. The homogenate was centrifuged at 4° C. for 10 min. at 1.000×g, and the pellet was discarded. The supernatant was recentrifuged at 4° C. for 20 min. at 20.000×g. The pellet was then homogenized in 50 volumes 0.32 M sucrose. To 300 μl uptake-buffer ([…], 15.3 mM KCl, 6.67 mM MgSO4, 3.83 mM CaCl2, 16.67 mM glucose, 66.67 mM Tris, pH 7.5 at 30° C.) was added 1-(2-(((diphenylmethylene)amino)oxy)ethyl)-1,2,5,6-tetrahydro-3-pyridinecarboxylic acid (NNC 05-0711) (1 mM final concentration), 100 μl test substance and 50 μl tissue suspension. The samples were mixed and incubated at 30° C. for 8 min. Then ^3 H-GABA (0.9 nM final concentration) and unlabelled GABA (25 nM final concentration) was added, and the incubation was continued for an additional 8 min. The reaction was terminated by rapid filtration through Whatman GF/F glass fiber filters under vacuum. The filters were then washed twice in 10 ml of ice-cold isotonic saline, and the tritium trapped on the filters was quantified by conventional scintillation spectroscopy. Non-GABA uptake carrier mediated uptake of ^3 H-GABA was determined in the presence of […].

Row | Structure (SMILES) | IC50 [nM]
2 | C[C@@H](CN1CCC(O)(c2ccccc2)CC1)Cn1c2ccccc2c2ccccc21 [Compound 11, (S)-1-((3-(9H-Carbazol-9-yl)-2-methyl)-1-propyl)-4-ph-enylpiperidin-4-ol hydrochloride] | 1480
3 | C[C@H](CN1CCC(O)(c2ccccc2)CC1)Cn1c2ccccc2c2ccccc21 [Compound 13, (R)-1-((3-(9H-Carbazol-9-yl)-2-methyl)-1-propyl)-4-phenylpiperidin-4-ol hydrochloride] | 7860
4 | CCc1ccc2c(c1)c1ccccc1n2CCCN1CCC(O)(c2ccccc2)CC1 [Compound 16, 1-(3-(3-Ethyl-9H-carbazol-9-yl)-1-propyl)-4-phenylpiperidin-4-ol] | 1700
5 | CC(Cl)CC(=O)n1c2ccccc2c2ccccc21 (stereo not drawn) [Compound 23, 1-(9H-Carbazol-9-yl)-3-chlorobutan-1-one] | 3100

Tested on: GABA uptake
Test: not given
Conditions: oral; Yunger, L. M. et al. 1984; cited from earlier work

Row | Structure (SMILES) | orally active inhibition of GABA uptake
6 | O=C(O)C1CCCN(CCC=C(c2ccccc2)c2ccccc2)C1 (stereo not drawn) [SK&F 89976A, N-(4,4-diphenyl-3-buten-1-yl)nipecotic acid] | orally active inhibitors of GABA uptake
7 | O=C(O)C1=CCCN(CCC=C(c2ccccc2)c2ccccc2)C1 [SK&F 100330A, N-(4,4-diphenyl-3-buten-1-yl)guvacine] | orally active inhibitors of GABA uptake
8 | O=C(O)CC1CCN(CCC=C(c2ccccc2)c2ccccc2)C1 (stereo not drawn) [SK&F 100561, N-(4,4-diphenyl-3-buten-1-yl)-homo-β-proline] | orally active inhibitors of GABA uptake
9 | O=C(O)C1CCCN(CCC=C(c2ccccc2)c2cccs2)C1 (stereo not drawn) [SK&F 100604J, N-(4-phenyl-4-(2-thienyl)-3-buten-1-yl)nipecotic acid] | orally active inhibitors of GABA uptake
